Reference: ChEMBL document CHEMBL1157039, “Synthesis and characterization of novel fatty acid analogs of cholesterol: in vitro antimicrobial activity” (2010)
Converted amounts (≈) assume the structure as drawn.

What was measured:
Pseudomonas aeruginosa [1] = assay: Antibacterial activity against Pseudomonas aeruginosa ATCC 27853 after 24 hrs by microdilution method; type: functional; conditions: ATCC 27853, 24 h
Streptococcus mutans [2] = assay: Antibacterial activity against Streptococcus mutans UA159 MTCC 497 after 24 hrs by disk diffusion method; type: functional
Salmonella enterica [3] = assay: Antibacterial activity against recultured Salmonella Typhimurium after 24 hrs by disk diffusion method; type: functional, Salmonella enterica subsp. enterica serovar Typhimurium
Pseudomonas aeruginosa [4] = assay: Antibacterial activity against Pseudomonas aeruginosa ATCC 27853 after 24 hrs by disk diffusion method; type: functional
Cryptococcus neoformans [5] = assay: Antifungal activity Cryptococcus neoformans after 48 to 72 hrs by disk diffusion method; type: functional
Escherichia coli [6] = assay: Antibacterial activity against Escherichia coli ATCC 25922 after 24 hrs by disk diffusion method; type: functional
Candida albicans [7] = assay: Antifungal activity against Candida albicans ATCC 24433 after 48 to 72 hrs by disk diffusion method; type: functional
Escherichia coli [8] = assay: Antibacterial activity against Escherichia coli ATCC 25922 after 24 hrs by microdilution method; type: functional; conditions: ATCC 25922, 24 h
Salmonella enterica [9] = assay: Antibacterial activity against recultured Salmonella Typhimurium after 24 hrs by microdilution method; type: functional, Salmonella enterica subsp. enterica serovar Typhimurium
Pichia kudriavzevii [10] = assay: Antifungal activity against Candida krusei ATCC 6528 after 48 to 72 hrs by disk diffusion method; type: functional
Streptococcus mutans [11] = assay: Antibacterial activity against Streptococcus mutans UA159 MTCC 497 after 24 hrs by microdilution method; type: functional; conditions: UA159 MTCC 497, 24 h
Cryptococcus neoformans [12] = assay: Antifungal activity Cryptococcus neoformans after 48 to 72 hrs by microdilution method; type: functional
Staphylococcus aureus [13] = assay: Antibacterial activity against Staphylococcus aureus ATCC 25923 after 24 hrs by microdilution method; type: functional; conditions: ATCC 25923, 24 h
Pichia kudriavzevii [14] = assay: Antifungal activity against Candida krusei ATCC 6528 after 48 to 72 hrs by microdilution method; type: functional
Staphylococcus aureus [15] = assay: Antibacterial activity against Staphylococcus aureus ATCC 25923 after 24 hrs by disk diffusion method; type: functional
Streptococcus pyogenes [16] = assay: Antibacterial activity against recultured Streptococcus pyogenes after 24 hrs by disk diffusion method; type: functional
Candida parapsilosis [17] = assay: Antifungal activity against Candida parapsilosis ATCC 22019 after 48 to 72 hrs by microdilution method; type: functional; conditions: Lodderomyces parapsilosis
Candida parapsilosis [18] = assay: Antifungal activity against Candida parapsilosis ATCC 22019 after 48 to 72 hrs by disk diffusion method; type: functional
Candida albicans [19] = assay: Antifungal activity against Candida albicans ATCC 24433 after 48 to 72 hrs by microdilution method; type: functional
Streptococcus pyogenes [20] = assay: Antibacterial activity against recultured Streptococcus pyogenes after 24 hrs by microdilution method; type: functional
Escherichia coli [21] = assay: Antibacterial activity against Escherichia coli ATCC 25922 at 30 ug/mL after 24 hrs by disk diffusion method; type: functional; conditions: ATCC 25922, 24 h, read-out: DIZ
Salmonella enterica [22] = assay: Antibacterial activity against recultured Salmonella Typhimurium at 30 ug/mL after 24 hrs by disk diffusion method; type: functional, Salmonella enterica subsp. enterica serovar Typhimurium; conditions: read-out: DIZ
Streptococcus mutans [23] = assay: Antibacterial activity against Streptococcus mutans UA159 MTCC 497 at 30 ug/mL after 24 hrs by disk diffusion method; type: functional; conditions: UA159 MTCC 497, 24 h, read-out: DIZ
Staphylococcus aureus [24] = assay: Antibacterial activity against Staphylococcus aureus ATCC 25923 at 30 ug/mL after 24 hrs by disk diffusion method; type: functional; conditions: ATCC 25923, 24 h, read-out: DIZ
Pseudomonas aeruginosa [25] = assay: Antibacterial activity against Pseudomonas aeruginosa ATCC 27853 at 30 ug/mL after 24 hrs by disk diffusion method; type: functional; conditions: ATCC 27853, 24 h, read-out: DIZ
Streptococcus pyogenes [26] = assay: Antibacterial activity against recultured Streptococcus pyogenes at 30 ug/mL after 24 hrs by disk diffusion method; type: functional; conditions: read-out: DIZ

Row | SMILES | MIC (Pseudomonas aeruginosa [1]) [mg/L] | MIC (Escherichia coli [8]) [mg/L] | MIC (Salmonella enterica [9]) [mg/L] | MIC (Streptococcus mutans [11]) [mg/L] | MIC (Cryptococcus neoformans [12]) [mg/L] | MIC (Staphylococcus aureus [13]) [mg/L] | MIC (Pichia kudriavzevii [14]) [mg/L] | MIC (Candida parapsilosis [17]) [mg/L] | MIC (Candida albicans [19]) [mg/L] | MIC (Streptococcus pyogenes [20]) [mg/L] | diameter of the inhibition zone (DIZ) (Streptococcus mutans [2]) [mm] | diameter of the inhibition zone (DIZ) (Salmonella enterica [3]) [mm] | diameter of the inhibition zone (DIZ) (Pseudomonas aeruginosa [4]) [mm] | diameter of the inhibition zone (DIZ) (Cryptococcus neoformans [5]) [mm] | diameter of the inhibition zone (DIZ) (Escherichia coli [6]) [mm] | diameter of the inhibition zone (DIZ) (Candida albicans [7]) [mm] | diameter of the inhibition zone (DIZ) (Pichia kudriavzevii [10]) [mm] | diameter of the inhibition zone (DIZ) (Staphylococcus aureus [15]) [mm] | diameter of the inhibition zone (DIZ) (Streptococcus pyogenes [16]) [mm] | diameter of the inhibition zone (DIZ) (Candida parapsilosis [18]) [mm] | other results
1 | CCCCC/C=C\CCC(O)CCCCCCCC(=O)O[C@H]1CC[C@@]2(C)C(=CC[C@H]3[C@@H]4CC[C@H]([C@H](C)CCCC(C)C)[C@@]4(C)CC[C@@H]32)C1 (some centres not stated) | 128 (≈ 192 µM) | 512 (≈ 767 µM) | 128 (≈ 192 µM) | 64 (≈ 95.9 µM) | 8 (≈ 12 µM) | 64 (≈ 95.9 µM) | 64 (≈ 95.9 µM) | 8 (≈ 12 µM) | 1 (≈ 1.5 µM) | 128 (≈ 192 µM) | 17.3 | 14.8 | 8.8 | 19.1 | 9.6 | 22.5 | 20.7 | 17.1 | 16.8 | 19.8 | –
2 | O=C(N[C@H](CO)[C@H](O)c1ccc([N+](=O)[O-])cc1)C(Cl)Cl [CHLORAMPHENICOL] | 32 (≈ 99 µM) | 32 (≈ 99 µM) | 32 (≈ 99 µM) | 32 (≈ 99 µM) | – | 32 (≈ 99 µM) | – | – | – | 32 (≈ 99 µM) | – | – | – | – | – | – | – | – | – | – | zone of inhibition at 30 µg/mL (Escherichia coli [21]): 20 mm; zone of inhibition at 30 µg/mL (Salmonella enterica [22]): 25.2 mm; zone of inhibition at 30 µg/mL (Streptococcus mutans [23]): 26.8 mm; zone of inhibition at 30 µg/mL (Staphylococcus aureus [24]): 21 mm; zone of inhibition at 30 µg/mL (Pseudomonas aeruginosa [25]): 17.1 mm; zone of inhibition at 30 µg/mL (Streptococcus pyogenes [26]): 22.4 mm
3 | CCCCCCC(O)C/C=C\CCCCCCCC(=O)O[C@H]1CC[C@@]2(C)C(=CC[C@H]3[C@@H]4CC[C@H]([C@H](C)CCCC(C)C)[C@@]4(C)CC[C@@H]32)C1 (some centres not stated) | 128 (≈ 192 µM) | 32 (≈ 48 µM) | 32 (≈ 48 µM) | 32 (≈ 48 µM) | 8 (≈ 12 µM) | 32 (≈ 48 µM) | 64 (≈ 95.9 µM) | 8 (≈ 12 µM) | 1 (≈ 1.5 µM) | 32 (≈ 48 µM) | 22.8 | 21.1 | 16.5 | 16.9 | 20.4 | 20.3 | 18.7 | 22.1 | 22.6 | 17.8 | –

The remaining compounds from weak to strong by MIC (Pseudomonas aeruginosa [1]), led by results:

Row | MIC (Pseudomonas aeruginosa [1]) [mg/L] | MIC (Escherichia coli [8]) [mg/L] | MIC (Salmonella enterica [9]) [mg/L] | MIC (Streptococcus mutans [11]) [mg/L] | MIC (Cryptococcus neoformans [12]) [mg/L] | MIC (Staphylococcus aureus [13]) [mg/L] | MIC (Pichia kudriavzevii [14]) [mg/L] | MIC (Candida parapsilosis [17]) [mg/L] | MIC (Candida albicans [19]) [mg/L] | MIC (Streptococcus pyogenes [20]) [mg/L] | SMILES | diameter of the inhibition zone (DIZ) (Streptococcus mutans [2]) [mm] | diameter of the inhibition zone (DIZ) (Salmonella enterica [3]) [mm] | diameter of the inhibition zone (DIZ) (Pseudomonas aeruginosa [4]) [mm] | diameter of the inhibition zone (DIZ) (Cryptococcus neoformans [5]) [mm] | diameter of the inhibition zone (DIZ) (Escherichia coli [6]) [mm] | diameter of the inhibition zone (DIZ) (Candida albicans [7]) [mm] | diameter of the inhibition zone (DIZ) (Pichia kudriavzevii [10]) [mm] | diameter of the inhibition zone (DIZ) (Staphylococcus aureus [15]) [mm] | diameter of the inhibition zone (DIZ) (Streptococcus pyogenes [16]) [mm] | diameter of the inhibition zone (DIZ) (Candida parapsilosis [18]) [mm] | other results
4 | 64 (≈ 73.3 µM) | 32 (≈ 36.7 µM) | 64 (≈ 73.3 µM) | 32 (≈ 36.7 µM) | 64 (≈ 73.3 µM) | 32 (≈ 36.7 µM) | 512 (≈ 587 µM) | 64 (≈ 73.3 µM) | 4 (≈ 4.58 µM) | 32 (≈ 36.7 µM) | CC(C)CCC[C@@H](C)[C@H]1CC[C@H]2[C@@H]3C[C@@H](Br)[C@@]4(Br)C[C@@H](OC(=O)CCCCCCCCC(Br)CBr)CC[C@]4(C)[C@H]3CC[C@]12C (some centres not stated) | 23.1 | 21.3 | 17.1 | 13.8 | 20.5 | 17.8 | 15.5 | 22.5 | 23.3 | 14.4 | –
5 | 64 (≈ 112 µM) | 32 (≈ 56.2 µM) | 64 (≈ 112 µM) | 32 (≈ 56.2 µM) | 32 (≈ 56.2 µM) | 32 (≈ 56.2 µM) | 128 (≈ 225 µM) | 8 (≈ 14.1 µM) | 1 (≈ 1.76 µM) | 32 (≈ 56.2 µM) | CC(C)CCC[C@@H](C)[C@H]1CC[C@H]2[C@@H]3CC=C4C[C@@H](OC(=O)CCCCCCCCC5CO5)CC[C@]4(C)[C@H]3CC[C@]12C (some centres not stated) | 21.9 | 17.2 | 18.5 | 15.8 | 19.9 | 19.6 | 17.8 | 21.9 | 20.5 | 16.9 | –
